Literature values as cited in patent publication US10596159B2, “Method and composition for treating cachexia and eating disorders” (India Globalization Capital, Inc., priority 2015, dated 2020).
Where two headings read alike, the source gives them in different places.

Assays:
[1] = HIV-positive and cancer patients; Gorter, 1999
[2] = advanced cancer patients, Ronga, et al. 2014

Row | SMILES | appetite [1] | body weight [1] | appetite stimulation (Suzuki, et al. 2013) | effect on weight loss (Suzuki, et al. 2013) | appetite stimulation [2] | effect on progressive weight loss [2]
1 | CCCCCc1cc(O)c2c(c1)OC(C)(C)[C@@H]1CCC(C)=C[C@@H]21 [THC, Delta-9-tetrahydrocannabinol] | stimulation of appetite | increase of body weight |  |  |  | 
2 | CN1CCC(=C2c3ccccc3C=Cc3ccccc32)CC1.Cl [cyproheptadine, 4-(5H-dibenzo [a,d]cyclohepten-5-ylidene)-1-methylpiperidine hydrochloride] |  |  | effective in stimulating appetite | only slight effects on weight loss | only mildly stimulated appetite | did not prevent progressive weight loss
